US11173145B2, “Compounds useful as inhibitors of indoleamine 2,3-dioxygenase and/or tryptophan dioxygenase” (Board of Regents, The University of Texas System, priority 2017, dated 2021)

What was measured:
IDO1 = target: T1, IDO1 (Homo sapiens, UniProt P14902); experiment: IDO1 cell-based assay (HeLa cells, IFNgamma-induced, N-formylkynurenine/L-tryptophan by RFMS); settings: 10 ng/mL IFNgamma, 24 hours
T1 construct: endogenous in cells; host or cells: HeLa cells (ATCC), IFNgamma-induced
In short: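 HeLa cells stimulated with 10 ng/mL IFNgamma and exposed to compound (0.5% DMSO final) for 24 h at 37 °C. Conditioned media deproteinized, then N-formylkynurenine and L-tryptophan quantified by RapidFire MS with deuterated tryptophan internal standard; IC50 by curve fitting. Viability checked by CellTiter-Glo.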

mouse IDO1 = target: T2, mouse IDO1 (Mus musculus, UniProt P28776); experiment: Mouse IDO1 cell-based assay (PANC02 cells, mouse IFNgamma-induced, N-formylkynurenine/L-tryptophan by RFMS); settings: 30 ng/mL mouse IFNgamma, 48 hours
T2 construct: The murine PANC02 pancreatic ductal adenocarcinoma cell line was routinely maintained in DMEM media; endogenous in cells; host or cells: PANC02 murine pancreatic ductal adenocarcinoma cells, induced with mouse IFNgamma
T2 sequence (P28776 whole entry): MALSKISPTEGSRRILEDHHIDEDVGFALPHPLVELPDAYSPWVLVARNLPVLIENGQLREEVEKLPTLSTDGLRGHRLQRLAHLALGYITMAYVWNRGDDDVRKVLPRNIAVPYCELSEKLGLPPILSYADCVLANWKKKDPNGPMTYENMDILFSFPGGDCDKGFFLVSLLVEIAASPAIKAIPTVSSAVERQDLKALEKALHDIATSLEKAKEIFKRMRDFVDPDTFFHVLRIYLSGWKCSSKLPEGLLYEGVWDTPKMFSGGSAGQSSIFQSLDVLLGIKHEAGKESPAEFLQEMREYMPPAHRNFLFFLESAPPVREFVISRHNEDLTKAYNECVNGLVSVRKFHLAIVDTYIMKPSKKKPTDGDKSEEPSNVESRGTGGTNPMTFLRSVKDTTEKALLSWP
Experimental: The murine PANC02 pancreatic ductal adenocarcinoma cell line was routinely maintained in DMEM media containing 10% FBS. Cells (3,000/well) were seeded onto a 384 well plate in 50 μl of media and incubated at 37° C., 5% CO2 overnight. Cell media was aspirated, fresh media containing 30 ng/mL mouse IFNgamma (Gibco Life Technologies, cat #PMC4031) was added, and cells were incubated in absence or presence of various concentrations of compounds (final 0.5% DMSO) for 48 hours at 37° C., 5% CO2. Aliquots of the cell conditioned media was removed from the cell plate, and mixed with equal volume of 200 mM ZnSO4 to precipitate media containing protein. Two volumes of acetonitrile were added by mixing, and samples were then centrifuged at 2250G for 20 minutes at 4° C. Aliquots of the supernatant were diluted 1:10 in 0.1% formic acid containing 3 μM of deuterated Tryptophan as an internal standard.
Samples were analyzed via RFMS to quantify N-Formyl Kynurenine (AUC) and L-tryptophan (AUC). A C18 cartridge was used with mobile phases of 0.1% Formic Acid and 80% ACN/0.1% Formic Acid under isocratic conditions. Dose-response curves were analyzed using IC50 regression curve fitting (GeneData Screener). Curves were plotted as percent of control and normalized by high controls without inhibitor (100%), and low controls (0%) containing 1 μM of epacadostat. Cell viability was also assessed using the Cell Titer Glo Kit (Promega) following manufacture recommendation.

T1 sequence (P14902 whole entry): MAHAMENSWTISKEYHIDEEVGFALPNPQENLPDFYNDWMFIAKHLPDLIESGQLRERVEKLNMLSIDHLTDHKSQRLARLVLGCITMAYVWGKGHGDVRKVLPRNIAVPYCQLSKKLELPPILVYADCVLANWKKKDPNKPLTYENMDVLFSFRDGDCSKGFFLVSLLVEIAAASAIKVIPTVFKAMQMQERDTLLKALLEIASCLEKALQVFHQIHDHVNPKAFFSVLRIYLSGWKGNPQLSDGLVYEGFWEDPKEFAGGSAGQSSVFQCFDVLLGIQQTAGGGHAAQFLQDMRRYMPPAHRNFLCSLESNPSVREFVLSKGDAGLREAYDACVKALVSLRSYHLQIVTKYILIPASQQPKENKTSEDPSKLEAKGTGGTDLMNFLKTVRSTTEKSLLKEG

Structure (SMILES)	IC50 (IDO1)	IC50 (mouse IDO1)
CCC(NC(=O)c1ccc(Cl)cc1)[C@H]1[C@@H]2C[C@@H](NC(=O)c3nccc(C(F)(F)F)c3Cl)C[C@@H]21 (stereo partly drawn) [Compound 158, 3-chloro-N-((1R,3s,5S,6r)-6-(1-(4-chlorobenzamido)propyl)bicyclo[3.1.0]hexan-3-yl)-4-(trifluoromethyl)picolinamide]	< 200 nM	500 to 2000 nM
CCC(NC(=O)c1ccc(Cl)cc1)[C@H]1[C@@H]2C[C@@H](N3C(=O)c4ccccc4C3=O)C[C@@H]21 (stereo partly drawn) [Compound 161, 4-chloro-N-(1-((1R,3s,5S,6r)-3-(1,3-dioxoisoindolin-2-yl)bicyclo[3.1.0]hexan-6-yl)propyl)benzamide]	< 200 nM	500 to 2000 nM
CCC(NC(=O)c1ccc(Cl)cc1)[C@H]1[C@@H]2C[C@@H](n3ncc4ccc(F)cc43)C[C@@H]21 (stereo partly drawn) [Compound 162, 4-chloro-N-(1-((1R,3s,5S,6r)-3-(6-fluoro-1H-indazol-1-yl)bicyclo[3.1.0]hexan-6-yl)propyl)benzamide]	< 200 nM	500 to 2000 nM
CCC(NC(=O)c1ccc(Cl)cc1)[C@H]1[C@@H]2C[C@@H](n3cc4ccc(F)cc4n3)C[C@@H]21 (stereo partly drawn) [Compound 163, 4-chloro-N-(1-((1R,3s,5S,6r)-3-(6-fluoro-2H-indazol-2-yl)bicyclo[3.1.0]hexan-6-yl)propyl)benzamide]	< 200 nM	< 500 nM
CCC(NC(=O)c1ccc(Cl)cc1)[C@H]1[C@@H]2C[C@@H](NC(=O)c3ccc(OC)cn3)C[C@@H]21 (stereo partly drawn) [Compound 164, N-((1R,3s,5S,6r)-6-(1-(4-chlorobenzamido)propyl)bicyclo[3.1.0]hexan-3-yl)-5-methoxypicolinamide]	200 to 2000 nM	500 to 2000 nM
CCc1cnnn1[C@@H]1C[C@@H]2[C@H](C1)[C@H]2C(CC)NC(=O)c1ccc(Cl)cc1 (stereo partly drawn) [Compound 165, 4-chloro-N-(1-((1R,3s,5S,6r)-3-(5-ethyl-1H-1,2,3-triazol-1-yl)bicyclo[3.1.0]hexan-6-yl)propyl)benzamide]	< 200 nM	< 500 nM
CCC(NC(=O)c1ccc(Cl)cc1)[C@H]1[C@@H]2C[C@@H](C(C#N)c3ccccc3)C[C@@H]21 (stereo partly drawn) [Compound 166, 4-chloro-N-(1-((1R,3s,5 S,6r)-3-(cyano(phenyl)methyl)bicyclo[3.1.0]hexan-6-yl)propyl) benzamide]	< 200 nM	< 500 nM
CCc1cn([C@@H]2C[C@@H]3[C@H](C2)[C@H]3C(CC)NC(=O)c2ccc(Cl)cc2)nn1 (stereo partly drawn) [Compound 167, 4-chloro-N-(1-((1R,3s,5S,6r)-3-(4-ethyl-1H-1,2,3-triazol-1-yl)bicyclo[3.1.0]hexan-6-yl)propyl)benzamide]	< 200 nM	< 500 nM
O=C(NC(CO)[C@H]1[C@@H]2C[C@@H](n3cc(C4CC4)nn3)C[C@@H]21)c1ccc(Cl)cc1 (stereo partly drawn) [Compound 168, 4-chloro-N-(1-((1R,3s,5S,6r)-3-(4-cyclopropyl-1H-1,2,3-triazol-1-yl)bicyclo[3.1.0]hexan-6-yl)-2-hydroxyethyl)benzamide]	2000 to 5000 nM	> 5000 nM
CCC(NC(=O)c1ccc(Cl)cc1)[C@H]1[C@@H]2C[C@@H](NC(=O)c3ncc(F)cc3F)C[C@@H]21 (stereo partly drawn) [Compound 171, N-((1R,3s,5S,6r)-6-(1-(4-chlorobenzamido)propyl)bicyclo[3.1.0]hexan-3-yl)-3,5-difluoropicolinamide]	< 200 nM	500 to 2000 nM
CCC(NC(=O)c1ccc(Cl)cc1)[C@H]1[C@@H]2C[C@@H](N3Cc4ccccc4C3=O)C[C@@H]21 (stereo partly drawn) [Compound 175, 4-chloro-N-(1-((1R,3s,5S,6r)-3-(1-oxoisoindolin-2-yl)bicyclo[3.1.0]hexan-6-yl)propyl)benzamide]	< 200 nM	500 to 2000 nM
CCC(NC(=O)c1ccc(Cl)cc1)[C@H]1[C@@H]2C[C@@H](NC(=O)c3cn[nH]c3)C[C@@H]21 (stereo partly drawn) [Compound 177, N-((1R,3s,5S,6r)-6-(1-(4-chlorobenzamido)propyl)bicyclo[3.1.0]hexan-3-yl)-1H-pyrazole-4-carboxamide]	200 to 2000 nM	> 5000 nM
CCC(NC(=O)c1ccc(Cl)cc1)[C@H]1[C@@H]2C[C@@H](n3nnc4ccc(Br)cc43)C[C@@H]21 (stereo partly drawn) [Compound 178, N-(1-((1R,3s,5S,6r)-3-(6-bromo-1H-benzo[d][1,2,3]triazol-1-yl)bicyclo[3.1.0]hexan-6-yl)propyl)-4-chlorobenzamide]	< 200 nM	< 500 nM
CCC(NC(=O)c1ccc(Cl)cc1)[C@H]1[C@@H]2C[C@@H](n3nc4ccc(Br)cc4n3)C[C@@H]21 (stereo partly drawn) [Compound 179, N-(1-((1R,3s,5S,6r)-3-(5-bromo-2H-benzo[d][1,2,3]triazol-2-yl)bicyclo[3.1.0]hexan-6-yl)propyl)-4-chlorobenzamide]	< 200 nM	2000 to 5000 nM
CCC(NC(=O)c1ccc(Cl)cc1)[C@H]1[C@@H]2C[C@@H](n3c(=O)[nH]c4ccccc43)C[C@@H]21 (stereo partly drawn) [Compound 180, 4-chloro-N-(1-((1R,3s,5S,6r)-3-(2-oxo-2,3-dihydro-1H-benzo[d]imidazol-1-yl)bicyclo[3.1.0]hexan-6-yl)propyl)benzamide]	200 to 2000 nM	500 to 2000 nM
CCC(NC(=O)c1ccc(Cl)cc1)[C@H]1[C@@H]2C[C@@H](n3c(=O)n(C)c4ccccc43)C[C@@H]21 (stereo partly drawn) [Compound 181, 4-chloro-N-(1-((1R,3s,5S,6r)-3-(3-methyl-2-oxo-2,3-dihydro-1H-benzo[d]imidazol-1-yl)bicyclo[3.1.0]hexan-6-yl)propyl)benzamide]	< 200 nM	< 500 nM
CCC(NC(=O)c1ccc(Cl)cc1)[C@H]1[C@@H]2C[C@@H](n3cccc4ncnc3-4)C[C@@H]21 (stereo partly drawn) [Compound 182, N-(1-((1R,3s,5S,6r)-3-(4H-imidazo[4,5-b]pyridin-4-yl)bicyclo[3.1.0]hexan-6-yl)propyl)-4-chlorobenzamide]	200 to 2000 nM	> 5000 nM
CCC(NC(=O)c1ccc(Cl)cc1)[C@H]1[C@@H]2C[C@@H](N3CCOC3=O)C[C@@H]21 (stereo partly drawn) [Compound 185, 4-chloro-N-(1-((1R,3s,5S,6r)-3-(2-oxooxazolidin-3-yl)bicyclo[3.1.0]hexan-6-yl)propyl)benzamide]	200 to 2000 nM	2000 to 5000 nM
CCC(NC(=O)c1ccc(Cl)cc1)[C@H]1[C@@H]2C[C@H](n3cc(CO)nn3)C[C@@H]21 (stereo partly drawn) [Compound 187, 4-chloro-N-(1-((1R,3r,5S,6r)-3-(4-(hydroxymethyl)-1H-1,2,3-triazol-1-yl)bicyclo[3.1.0]hexan-6-yl)propyl)benzamide]	200 to 2000 nM	2000 to 5000 nM
CCC(NC(=O)c1ccc(Cl)cc1)[C@H]1[C@@H]2C[C@@H](NC(=O)c3ncccc3F)C[C@@H]21 (stereo partly drawn) [Compound 188, N-((1R,3s,5S,6r)-6-(1-(4-chlorobenzamido)propyl)bicyclo[3.1.0]hexan-3-yl)-3-fluoropicolinamide]	< 200 nM	500 to 2000 nM
CCC(NC(=O)c1ccc(Cl)cc1)[C@H]1[C@@H]2C[C@@H](NC(=O)N(C)c3ccccn3)C[C@@H]21 (stereo partly drawn) [Compound 189, 4-chloro-N-(1-((1R,3s, 5S, 6r)-3-(3-methyl-3-(pyridin-2-yl)ureido)bicyclo[3.1.0]hexan-6-yl)propyl)benzamide]	< 200 nM	500 to 2000 nM
CCOC(=O)C(N[C@@H]1C[C@@H]2[C@H](C1)[C@H]2C(CC)NC(=O)c1ccc(Cl)cc1)c1ccccc1 (stereo partly drawn) [Compound 190, ethyl 2-(((1R,3s,5S,6r)-6-(1-(4-chlorobenzamido)propyl)bicyclo[3.1.0]hexan-3-yl)amino)-2-phenylacetate]	200 to 2000 nM	> 5000 nM
CCC(NC(=O)c1ccc(Cl)cc1)[C@H]1[C@@H]2C[C@H](n3nncc3C3CC3)C[C@@H]21 (stereo partly drawn) [Compound 191, 4-chloro-N-(1-((1R,3r,5S,6r)-3-(5-cyclopropyl-1H-1,2,3-triazol-1-yl)bicyclo[3.1.0]hexan-6-yl)propyl)benzamide]	200 to 2000 nM	500 to 2000 nM
CCC(NC(=O)c1ccc(Cl)cc1)[C@H]1[C@@H]2C[C@@H](n3c(=O)[nH]c4cc(F)ccc43)C[C@@H]21 (stereo partly drawn) [Compound 192, 4-chloro-N-(1-((1R,3s,5S,6r)-3-(5-fluoro-2-oxo-2,3-dihydro-1H-benzo[d]imidazol-1-yl)bicyclo[3.1.0]hexan-6-yl)propyl)benzamide]	200 to 2000 nM	500 to 2000 nM
CCC(NC(=O)c1ccc(Cl)cc1)[C@H]1[C@@H]2C[C@@H](Oc3nc4cc(F)ccc4[nH]3)C[C@@H]21 (stereo partly drawn) [Compound 193, 4-chloro-N-(1-((1R,3s,5S,6r)-3-((6-fluoro-1H-benzo[d]imidazol-2-yl)oxy)bicyclo[3.1.0]hexan-6-yl)propyl)benzamide]	200 to 2000 nM	500 to 2000 nM
